Laboratory results taken from paper PMC12169662, “De Novo-Designed APC/C Inhibitors Provide a Rationale for Targeting RING-Type E3 Ubiquitin Ligases” (Journal of Medicinal Chemistry, 2025).
Bridge positions count the residues as written; N and C are the ends. Square brackets hold non-standard residues; d marks the D form. Peptide text beside a SMILES is read from it. R8 = C=CCCCCCC[C@@](C)(N)C(=O)O; S5 = C=CCCC[C@](C)(N)C(=O)O; Pra = C#CC[C@H](N)C(=O)O

Legend:
[1] = target: T1, APC/C (Homo sapiens, UniProt Q9NYG5); assay: In vitro APC/C ubiquitylation assay with APC/C immunoprecipitated from metaphase HeLa cells; type: biochemical; parameters: immunoprecipitated APC/C from metaphase-synchronized HeLa cells; endogenous in cells; host or cells: metaphase-synchronized HeLa cells (APC/C); the E2 is recombinant; conditions: 100 μM, end-point assay, UBE2C as E2, dye-labeled securin, in-gel scanning, n = 5
From the text: To assess prevention of RING activation by our E2 mimetics, and thus validate our design strategy, we employed in vitro APC/C ubiquitylation assays containing immunoprecipitated APC/C from metaphase-synchronized HeLa cells, recombinant UBA1 (E1), UBE2C (E2), ubiquitin, and dye-labeled metaphase APC/C substrate securin (Figure A). […] To immobilize BH3 to beads, we used our models to introduce propargylglycine (Pra) (Pra-BH3) at the N-term and thus enable side chain conjugation with azide agarose beads by click chemistry (Figure E). […] Pra-BH3 also precipitated other RING-type E3 including BRCA1, BMI1, MDM2, c-CBL and c-IAP1 (Figure F). However, except for c-CBL and MDM2, those interactions were weaker, as judged by the degree of enrichment over the input of the assay (Figure G).
(§1) APC/C-dependent ubiquitination reactions were performed at 30 °C in 30 mM HEPES pH 7.4, 175 mM NaCl, 8 mM MgCl2, 0.05% Tween-20, 1 mM DTT and 5% glycerol and contained 20 nM recombinant APC/C, 340 nM CDC20, 46 nM GST-UBA1, 340 nM UBE2C (alternatively 400 nM UBE2D, 280 nM UBE2S), 21 μM His6-ubiquitin or if it is indicated 21 μM methylated-ubiquitin (BostonBiochem), 2.6 mM ATP, 10 mM phosphocreatine, and 11 μM creatine kinase. […] Detection of fluorescently labeled substrates was done by a quantitative near-infrared scanning system, Odyssey.

[2] = target: T1, APC/C; assay: In vitro APC/C ubiquitination assay, fully reconstituted with recombinant APC/C, substrate securin; type: biochemical; parameters: made in house; host or cells: SF9 insect cells, co-infected with two baculoviruses (bacmids a gift from David Barford); conditions: 25 μM, lowest concentration of titration 25-100 μM, n = 3
Procedure: Next, we tested the APC/C inhibitory proficiency of H1-6 in fully reconstituted activity assays with recombinant APC/C in comparison to BH3 and the commercially available APC/C inhibitor TAME. To account for mechanistic differences in APC/C inhibition between TAME (inhibits CDC20 binding) and ^i APC11 (inhibits E2 binding), all inhibitors, E2s and CDC20 were added simultaneously to APC/C. […] We observed no difference for UBE2C and only a small (∼10%) decrease in UBE2S autoubiquitylation compared to control reactions (Figure S16B–D).
To quantify the inhibitory effectiveness of H6, its IC50 was determined. To this end, we performed in vitro APC/C ubiquitination assays in the presence of H6 titrated from 0.01 to 100 μM (Figure S17B). […]
as §1, with “Odyssey. […]” for “Odyssey.”

[3] = target: T2, UBE2S (Homo sapiens, UniProt Q16763); assay: In vitro E2 activity assay (autoubiquitination); type: biochemical; conditions: 100 μM, 45 min, 30 °C, Blue Silver staining, n = 3
T2 construct: gift of Sonja Lorenz (MPI, Göttingen, Germany)
T2 sequence (Q16763 1-222): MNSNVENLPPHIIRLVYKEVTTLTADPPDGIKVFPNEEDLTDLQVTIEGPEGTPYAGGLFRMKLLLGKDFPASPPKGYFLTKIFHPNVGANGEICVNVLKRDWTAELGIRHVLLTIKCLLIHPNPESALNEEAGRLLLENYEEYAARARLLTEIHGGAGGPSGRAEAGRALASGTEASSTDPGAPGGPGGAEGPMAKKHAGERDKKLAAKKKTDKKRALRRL
Procedure: UBE2C and UBE2S activity assays were performed at 30 °C in 50 mM HEPES pH 7.4, 100 mM KCl, 9 mM MgCl2, and contained 0.6 μM UBA1 (E1), 8 μM UBE2C or UBE2S, 60 μM His6-ubiquitin, and 5.6 mM ATP. It should be noted that wild-type UBE2C and UBE2S were used. The reaction was done in a volume of 15 μL, and it was quenched after 45 min with the LDS sample buffer supplemented with 100 mM DTT and subjected to SDS-PAGE followed by Blue Silver staining. Imaging of Blue Silver-stained gels was done by a quantitative near-infrared scanning system, Odyssey. It should be noted that reactions without ATP were first preincubated for 5 min at room temperature.

[4] = target: T3, RBX1 (Homo sapiens, UniProt P62877); assay: Pull-down binding assay from HeLa cell extract, Western blot; conditions: n = 3; for binding to RBX1, Pra-H1 versus Pra-BH3: pull-down with metaphase extracts
T3 construct: endogenous in cells; host or cells: HeLa
T3 sequence (P62877 whole entry): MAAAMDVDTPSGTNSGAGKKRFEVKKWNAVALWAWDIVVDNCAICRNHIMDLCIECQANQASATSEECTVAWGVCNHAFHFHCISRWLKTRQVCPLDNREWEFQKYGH
Procedure: (§2) For protein transfer, a 0.45 μm Immobilon-FL PVDF membrane (Merck Millipore) was used. The membrane was activated in ethanol and then transferred to Blotting buffer (50 mM SDS-MOPS, 50 mM Tris base, 0.1% SDS, 1 mM EDTA, and 20% EtOH). The proteins were transferred using a wet transfer for 1.5 h at 400 mA. Subsequently, the membrane was incubated with the blocking solution, 10% milk in PBS-T (0.02% Tween-20 in PBS), for 1 h at room temperature. To detect proteins of interest, the membrane was incubated with primary antibodies overnight at 4° C, followed by 3 washes for 10 min with PBS-T and incubation with IRDye-labeled secondary antibodies for 1 h. Prior to detection, the membrane was washed twice with PBS-T for 10 min and once with PBS for 10 min. The detection was done using the quantitative near-infrared scanning system Odyssey (LI-COR Biosciences).
(§3) HeLa cell pellet was resuspended in the extraction buffer (30 mM HEPES pH 7.5, 175 mM NaCl, 2.5 mM MgCl2, 0.25% NP40, 10% glycerol, 1 mM DTT supplied with complete protease inhibitor cocktail (Roche), PhosSTOP phosphatase inhibitors (Roche), 1 mM PMSF, 10 μM MG132) and incubated for 20 min on ice, followed by centrifugation to clear the lysate for 15 min at 4 °C 16,100 g. In the meantime, inhibitor molecules containing the propargyl-Gly-OH (Pra) chemical group were covalently attached to the azide agarose resin (Jena Bioscience) by Cu(I)-catalyzed azide–alkyne cycloaddition reaction. Specifically, the inhibitor molecules were mixed with azide agarose resin in a ratio of 0.125 μmol inhibitor/20 μL agarose resin. The reaction was catalyzed by 0.1 mM CuSO4, 0.5 mM THPTA (Sigma-Aldrich), and 5 mM Sodium ascorbate and was performed on the rotating wheel for 30 min at room temperature in a volume of 1 mL. Subsequently, the resin was washed five times with extraction buffer. The inhibitor-agarose resin was added to 2 mg of HeLa cell extract and incubated at 4 °C for 2 h. Afterward, the resin was washed four times with extraction buffer. Pull-down proteins were eluted by incubation with prewarmed 1x LDS sample buffer for 10 min at room temperature, followed by taking supernatant supplemented with 100 mM DTT and boiling for 10 min. Afterward, SDS PAGE and Western blot analyses were performed to detect the indicated proteins.

[5] = target: T4, c-IAP1 (Homo sapiens, UniProt Q13490); assay: as above; conditions: peptide clicked to azide agarose beads, n = 3
T4 construct: endogenous in cells; host or cells: HeLa
T4 sequence (Q13490 whole entry): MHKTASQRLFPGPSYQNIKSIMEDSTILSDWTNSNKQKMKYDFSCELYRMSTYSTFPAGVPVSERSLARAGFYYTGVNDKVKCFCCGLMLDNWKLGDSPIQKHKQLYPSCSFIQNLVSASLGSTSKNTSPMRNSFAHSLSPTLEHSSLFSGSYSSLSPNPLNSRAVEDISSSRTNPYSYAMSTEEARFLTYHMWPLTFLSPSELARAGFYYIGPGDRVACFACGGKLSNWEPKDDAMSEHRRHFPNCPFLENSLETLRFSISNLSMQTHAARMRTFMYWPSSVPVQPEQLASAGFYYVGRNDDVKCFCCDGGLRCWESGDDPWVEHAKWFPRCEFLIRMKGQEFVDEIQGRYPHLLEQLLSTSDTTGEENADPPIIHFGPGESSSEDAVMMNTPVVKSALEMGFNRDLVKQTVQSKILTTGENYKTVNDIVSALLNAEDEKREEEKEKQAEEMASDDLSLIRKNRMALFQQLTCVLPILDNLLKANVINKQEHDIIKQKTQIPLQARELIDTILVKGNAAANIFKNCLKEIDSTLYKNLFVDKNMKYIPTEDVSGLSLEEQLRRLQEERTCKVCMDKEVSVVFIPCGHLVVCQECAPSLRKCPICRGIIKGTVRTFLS
Procedure: as §2, §3

[6] = target: T5, BRCA1 (Homo sapiens, UniProt P38398); assay: as above; conditions: peptide clicked to azide agarose beads, n = 3
T5 construct: endogenous in cells; host or cells: HeLa
T5 sequence (P38398 whole entry): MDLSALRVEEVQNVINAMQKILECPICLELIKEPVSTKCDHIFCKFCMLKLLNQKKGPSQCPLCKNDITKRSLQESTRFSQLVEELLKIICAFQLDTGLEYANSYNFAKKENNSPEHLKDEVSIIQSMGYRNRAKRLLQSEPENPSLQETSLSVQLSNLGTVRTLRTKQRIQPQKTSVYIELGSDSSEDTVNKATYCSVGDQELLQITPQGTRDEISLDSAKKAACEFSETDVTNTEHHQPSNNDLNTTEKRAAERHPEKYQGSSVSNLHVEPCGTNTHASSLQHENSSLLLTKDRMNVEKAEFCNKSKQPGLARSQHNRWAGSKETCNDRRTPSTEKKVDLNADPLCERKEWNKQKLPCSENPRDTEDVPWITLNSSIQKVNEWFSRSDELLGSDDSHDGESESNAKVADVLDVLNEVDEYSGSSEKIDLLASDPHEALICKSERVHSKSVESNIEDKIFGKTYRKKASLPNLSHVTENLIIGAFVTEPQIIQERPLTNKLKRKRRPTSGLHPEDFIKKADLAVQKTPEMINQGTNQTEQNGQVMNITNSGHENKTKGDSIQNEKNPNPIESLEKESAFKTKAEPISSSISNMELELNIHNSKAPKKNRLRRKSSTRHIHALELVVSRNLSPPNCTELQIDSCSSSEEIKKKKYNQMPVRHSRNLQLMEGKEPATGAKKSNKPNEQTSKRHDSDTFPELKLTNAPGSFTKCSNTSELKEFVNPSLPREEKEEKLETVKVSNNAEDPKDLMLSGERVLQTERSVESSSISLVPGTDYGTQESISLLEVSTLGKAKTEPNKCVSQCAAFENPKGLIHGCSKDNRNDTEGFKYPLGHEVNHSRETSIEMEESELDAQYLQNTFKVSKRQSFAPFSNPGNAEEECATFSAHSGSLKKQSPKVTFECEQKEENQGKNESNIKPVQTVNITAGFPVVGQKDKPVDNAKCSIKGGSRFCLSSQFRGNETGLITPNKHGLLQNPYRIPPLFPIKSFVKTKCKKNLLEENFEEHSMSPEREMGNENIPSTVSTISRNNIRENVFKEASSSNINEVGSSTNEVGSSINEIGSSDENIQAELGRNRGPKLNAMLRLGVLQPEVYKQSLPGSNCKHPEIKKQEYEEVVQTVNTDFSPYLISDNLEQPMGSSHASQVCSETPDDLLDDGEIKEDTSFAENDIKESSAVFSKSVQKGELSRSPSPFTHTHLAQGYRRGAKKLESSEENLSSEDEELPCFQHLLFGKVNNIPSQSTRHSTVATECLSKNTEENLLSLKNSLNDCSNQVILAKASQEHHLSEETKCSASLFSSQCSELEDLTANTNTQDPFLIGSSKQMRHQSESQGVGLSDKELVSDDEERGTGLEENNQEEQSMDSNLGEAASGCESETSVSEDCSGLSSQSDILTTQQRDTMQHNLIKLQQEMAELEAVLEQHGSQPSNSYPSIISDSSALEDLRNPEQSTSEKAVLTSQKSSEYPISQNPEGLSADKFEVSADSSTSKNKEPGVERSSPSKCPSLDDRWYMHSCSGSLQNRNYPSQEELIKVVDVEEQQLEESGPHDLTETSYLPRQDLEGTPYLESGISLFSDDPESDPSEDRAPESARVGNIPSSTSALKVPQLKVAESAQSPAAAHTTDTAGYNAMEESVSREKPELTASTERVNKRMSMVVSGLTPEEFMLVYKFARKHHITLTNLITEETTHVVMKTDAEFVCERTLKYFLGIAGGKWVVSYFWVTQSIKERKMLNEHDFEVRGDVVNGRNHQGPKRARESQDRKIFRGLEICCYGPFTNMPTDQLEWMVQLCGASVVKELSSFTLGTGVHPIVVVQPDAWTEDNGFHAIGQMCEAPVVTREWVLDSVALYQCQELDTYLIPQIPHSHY
Procedure: as §2, §3

[7] = target: T6, APC11 (Homo sapiens, UniProt Q9NYG5); assay: as above; conditions: peptide clicked to azide agarose beads, 2 mg HeLa extract, 4 °C, 2 h, n = 3
T6 construct: endogenous in cells; host or cells: HeLa
T6 sequence (Q9NYG5 whole entry): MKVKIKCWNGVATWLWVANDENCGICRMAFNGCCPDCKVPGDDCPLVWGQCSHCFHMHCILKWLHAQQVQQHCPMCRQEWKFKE
Procedure: as §2, §3

[8] = target: T7, BMI1 (Homo sapiens, UniProt P35226); assay: as above; conditions: peptide clicked to azide agarose beads, n = 3
T7 construct: endogenous in cells; host or cells: HeLa
T7 sequence (P35226 1-326): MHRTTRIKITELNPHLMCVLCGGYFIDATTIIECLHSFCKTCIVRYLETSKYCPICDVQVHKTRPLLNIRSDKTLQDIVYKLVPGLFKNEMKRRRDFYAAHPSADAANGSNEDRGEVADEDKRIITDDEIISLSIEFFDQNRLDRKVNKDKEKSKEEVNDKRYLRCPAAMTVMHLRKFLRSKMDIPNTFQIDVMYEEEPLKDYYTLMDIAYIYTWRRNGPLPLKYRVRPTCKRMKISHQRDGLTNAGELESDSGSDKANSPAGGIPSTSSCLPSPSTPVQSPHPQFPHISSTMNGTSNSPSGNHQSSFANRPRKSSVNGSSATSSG
Procedure: as §2, §3

[9] = target: T8, c-CBL (Homo sapiens, UniProt P22681); assay: as above; conditions: peptide clicked to azide agarose beads, n = 3
T8 construct: endogenous in cells; host or cells: HeLa
Procedure: as §2, §3

[10] = target: T9, MDM2 (Homo sapiens, UniProt Q00987); assay: as above; conditions: peptide clicked to azide agarose beads, n = 3
T9 construct: endogenous in cells; host or cells: HeLa
T9 sequence (Q00987 whole entry): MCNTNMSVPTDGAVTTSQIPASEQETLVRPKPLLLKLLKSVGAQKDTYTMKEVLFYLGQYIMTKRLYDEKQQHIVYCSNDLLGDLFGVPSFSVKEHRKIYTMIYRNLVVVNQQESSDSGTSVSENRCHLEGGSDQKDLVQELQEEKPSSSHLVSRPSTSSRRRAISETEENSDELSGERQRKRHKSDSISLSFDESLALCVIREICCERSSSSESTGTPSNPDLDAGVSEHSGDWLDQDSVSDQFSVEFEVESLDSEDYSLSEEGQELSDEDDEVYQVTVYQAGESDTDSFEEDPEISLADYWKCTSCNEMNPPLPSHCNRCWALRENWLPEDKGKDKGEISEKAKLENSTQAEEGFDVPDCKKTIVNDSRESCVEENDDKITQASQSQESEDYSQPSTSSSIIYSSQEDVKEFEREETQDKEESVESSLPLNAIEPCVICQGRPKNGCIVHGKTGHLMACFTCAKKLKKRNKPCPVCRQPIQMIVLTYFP
Procedure: as §2, §3

## C[C@@H](O)[C@H](NC(=O)[C@H](CCCNC(=N)N)NC(=O)[C@@H]1CSSC[C@H](NC(=O)[C@H](CCCNC(=N)N)NC(=O)CN)C(=O)N[C@@H](Cc2c[nH]cn2)C(=O)N[C@@H](Cc2c[nH]c3ccccc23)C(=O)NCC(=O)N2CCC[C@H]2C(=O)N[C@@H](CCC(=O)O)C(=O)N[C@@H]([C@@H](C)O)C(=O)N[C@@H](Cc2ccccc2)C(=O)N[C@@H](Cc2c[nH]c3ccccc23)C(=O)N1)C(=O)O [BH4] (H-GRCHWGPETFWCRT-OH; disulfide 3-12)
[1]
  securin ubiquitylation compared to control reactions: no such effect

## CC[C@H](C)[C@@H]1NC(=O)[C@H](CCC(=O)O)NC(=O)[C@H](CCCCN)NC(=O)[C@H]([C@@H](C)CC)NC(=O)[C@](C)(NC(=O)[C@H](Cc2c[nH]c3ccccc23)NC(=O)[C@H](Cc2c[nH]c3ccccc23)NC(=O)[C@H](CCC(=O)O)NC(C)=O)CCCCCCC=CCCC[C@@](C)(C(=O)N[C@@H](CCCNC(=N)N)C(=O)N[C@@H](CCCNC(=N)N)C(=O)N[C@@H](C)C(N)=O)NC(=O)[C@H](CCCNC(=N)N)NC(=O)[C@H](CCC(N)=O)NC1=O [H6] (Ac-EWW[R8]IKEIQR[S5]RRA-NH2; staple 4-11)
[2]
  reduction of APC/C activity toward securin: more than 80%
[3]
  decrease in UBE2S autoubiquitylation compared to control reactions: ~10%

## C#CC[C@H](NC(=O)[C@@H]1CCCN1C(=O)[C@H](Cc1c[nH]c2ccccc12)NC(=O)[C@H](CCCNC(=N)N)NC(C)=O)C(=O)N[C@@]1(C)CCCC=CCCC[C@@](C)(C(=O)N[C@@H](CCC(N)=O)C(=O)N[C@H](C(=O)N[C@@H](CCCNC(=N)N)C(=O)N[C@@H](CCCNC(=N)N)C(=O)N[C@@H](Cc2c[nH]c3ccccc23)C(N)=O)C(C)C)NC(=O)[C@H](CC(=O)O)NC(=O)[C@H](Cc2c[nH]c3ccccc23)NC(=O)[C@H](CCCCN)NC1=O [Pra-H1] (Ac-RWP[Pra][S5]KWD[S5]QVRRW-NH2; staple 5-9)
[4]
  binding to RBX1, Pra-H1 versus Pra-BH3: very weak and unchanged

## Ac-[Pra]RCHWGPRTFWCR-NH2 (disulfide 3-12 (inferred); SMILES C#CC[C@H](NC(C)=O)C(=O)N[C@@H](CCCNC(=N)N)C(=O)N[C@H]1CSSC[C@@H](C(=O)N[C@@H](CCCNC(=N)N)C(N)=O)NC(=O)[C@H](Cc2c[nH]c3ccccc23)NC(=O)[C@H](Cc2ccccc2)NC(=O)[C@H]([C@@H](C)O)NC(=O)[C@H](CCCNC(=N)N)NC(=O)[C@@H]2CCCN2C(=O)CNC(=O)[C@H](Cc2c[nH]c3ccccc23)NC(=O)[C@H](Cc2c[nH]cn2)NC1=O) [Pra-BH3, BH3 with propargylglycine at the N-term for click chemistry]
[5]
  precipitation of c-IAP1 on beads, enrichment over input: weaker
[4]; peptide clicked to azide agarose beads, 2 mg HeLa extract, 4 °C, 2 h
  enrichment of RBX1 on beads: not
[4]
  binding to RBX1, Pra-H1 versus Pra-BH3: very weak and unchanged
[6]
  precipitation of BRCA1 on beads, enrichment over input: weaker
[7]
  enrichment of APC11 on beads: strong enrichment
[8]
  precipitation of BMI1 on beads, enrichment over input: weaker
[9]
  precipitation of c-CBL on beads: precipitated
[10]
  precipitation of MDM2 on beads: precipitated
